For orientation: LogP means the decadic logarithm of the partition coefficient of the neutral form, usually between octanol and water. The Log P is the decadic logarithm of the partition coefficient of the neutral form, usually between octanol and water.

Results on 4 compounds are retold here after patent US20250339399A1, “SUPRAMOLECULAR SELF-ASSEMBLY SYSTEM” (Beijing Creatron Institute of Pharmaceutical Research Co., …, priority 2022, published 2025).

Data set [1] is described as follows: Comparative Example 3: systems with 10% (W/V) natural building block. Format: physicochemical. The following applies: 6 h. On the procedure:
An initial medium of each above target molecule was used to prepare a solution containing 10% Rubusoside A (313) or 10% (W/V) Mogroside V (319), the solution was sonicated at 37° C. to prepare a solution containing about 100 mg/mL building block 313 or 319 per 1 mL of the initial medium, the clear medium containing the natural building blocks was incubated in a 37° C. constant temperature air bath shaker for 1 hour, and subsequent operations and sample detection followed the steps of Comparative Examples 1 and 2. Considering that each natural building block had different UV absorption and was added at a high concentration, the more specific HPLC method was still used for quantitative determination on the solution concentration of each guest molecule, […].

The nature of data set [2]: Binary (carrier), ternary and quaternary supramolecular self-assembly systems of polymer, carrier building block and target: guest concentration over incubation time (Examples 1-56). Format: physicochemical. The gist of the method: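 Targets were incubated at 37 °C in pH 2.0–7.4 buffers with 0.5% polymer alone or with carrier building blocks, after 0.5 h sonication for ternary systems, and shaken at 200 rpm. Samples at 0.5–6 h were centrifuged and diluted ≥10-fold, and dissolved target was quantified by HPLC; surfactant was added if needed.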

Data set [3] can be described thus: Guest molecule concentration after incubation in initial medium without polymer (Comparative Example 1). The format is physicochemical. The following applies: 37° C. In short, it runs like this:
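Dissolved guest content measured by HPLC of centrifuged supernatants (37° C., 13000 rpm, 5 min) sampled at 0.5 h, 3 h and 6 h. Incubation was polymer-free at 37° C.±0.5° C. in buffers of pH 2.0-7.4; nominal loading was set by maximum clinical dose.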

Data set [4] can be described thus: Binary supramolecular self-assembly systems of polymer and target: guest concentration over incubation time (Comparative Example 2). Format: physicochemical. On the procedure:
Experiments were conducted according to the steps in Comparative Example 1, and quantitative analysis was carried out using the analytical method for each target to investigate the regulation ability […] stacking.

For data set [5] the following is noted: 10% (W/V) Rubusoside A as building block; according to US2012/0121696A1; cited from earlier work.
For data set [6] the following is noted: cited from earlier work; for Log P: prost derivatives, Table 31 (relevant information).
For data set [7] the following is noted: prost derivatives; 37° C.; cited from earlier work.
Setting [8] is: ternary: 0.25% 102L + 0.1% 313, 6 h.
Setting [9] is: ternary: 0.25% 102L + 1.0% 313, 6 h.
Where [10] appears, read: binary system with 0.5% polymer 101, incubation 0.5 h.
Setting [11] is: binary system with 0.5% polymer 101, incubation 3 h.
Where [12] appears, read: binary system with 0.5% polymer 101, incubation 6 h.
Where [13] appears, read: binary system with 0.5% polymer 102, incubation 0.5 h.
[14] abbreviates: binary system with 0.5% polymer 102, incubation 3 h.
The mark [15] stands for this setting: binary system with 0.5% polymer 102, incubation 6 h.
Setting [16] is: binary system with 0.5% polymer 103, incubation 0.5 h.
[17] abbreviates: binary system with 0.5% polymer 103, incubation 3 h.
Setting [18] is: binary system with 0.5% polymer 103, incubation 6 h.
Where [19] appears, read: binary system with 0.5% polymer 106, incubation 0.5 h.
Where [20] appears, read: binary system with 0.5% polymer 106, incubation 3 h.
The mark [21] stands for this setting: binary system with 0.5% polymer 106, incubation 6 h.
The mark [22] stands for this setting: binary system with 0.5% polymer 107, incubation 0.5 h.
The mark [23] stands for this setting: binary system with 0.5% polymer 107, incubation 3 h.
Where [24] appears, read: binary system with 0.5% polymer 107, incubation 6 h.
Setting [25] is: binary system with 0.5% polymer 110, incubation 0.5 h.
Where [26] appears, read: binary system with 0.5% polymer 110, incubation 3 h.
The mark [27] stands for this setting: binary system with 0.5% polymer 110, incubation 6 h.
The mark [28] stands for this setting: ternary: 0.25% 102H + 0.1% 319, 6 h.
Where [29] appears, read: ternary: 0.25% 102H + 1.0% 319, 6 h.
Setting [30] is: ternary: 0.25% 102M + 0.5% 302, 6 h.

For `Cc1ccc(-c2cc(C(F)(F)F)nn2-c2ccc(S(N)(=O)=O)cc2)cc1` [Celecoxib], the entries for the “Concentration of guest molecule in solution” value (“Concentration … in solution” below) in data set [1] (Comparative Example 3: 10% 313), in data set [2] (setting [8]) and in data set [2] (setting [9]) were 31.3 µg/mL, 988.1 µg/mL and 352.3 µg/mL, respectively. Further, the results for the “Times that in Comparative Example 3” value in data set [2] (setting [8]) and in data set [2] (setting [9]) were 31.9 times and 11.4 times, respectively. The “Concentration of guest molecule measured after different incubated time” value in data set [3] (0.5 h, pH 2.0 hydrochloric acid) was found to be 20.5 µg/mL; in data set [3] (3 h, pH 2.0 hydrochloric acid), 5.4 µg/mL; in data set [3] (6 h, pH 2.0 hydrochloric acid), 4.2 µg/mL. Moreover, the “Concentration of the target in the solution measured after different incubation time” value (from here on “Concentration … after different incubation time”) in data set [4] (setting [10]) was found to be 224.3 µg/mL; in data set [4] (setting [11]), 62.2 µg/mL; in data set [4] (setting [12]), 54.4 µg/mL; in data set [4] (setting [13]), 19.6 µg/mL; in data set [4] (setting [14]), 11.1 µg/mL; in data set [4] (setting [15]), 10.6 µg/mL. For the same compound, the “Concentration … after different incubation time” value in data set [4] (setting [16]) was determined as 31.1 µg/mL; in data set [4] (setting [17]), 32.2 µg/mL; in data set [4] (setting [18]), 31.9 µg/mL; in data set [4] (setting [19]), 49.0 µg/mL; in data set [4] (setting [20]) it was 30.1 µg/mL; in data set [4] (setting [21]) it was 26.3 µg/mL. The “Concentration … after different incubation time” value in data set [4] (setting [22]) turned out to be 36.4 µg/mL; in data set [4] (setting [23]), 35.4 µg/mL; in data set [4] (setting [24]), 35.3 µg/mL; in data set [4] (setting [25]) it was 6.4 µg/mL; in data set [4] (setting [26]), 11.1 µg/mL; in data set [4] (setting [27]), 4.8 µg/mL. Moreover, in data set [5], the “Concentration in the solution” value is 109 µg/mL.

Regarding `COc1cc(/C=C/C(=O)CC(=O)/C=C/c2ccc(O)c(OC)c2)ccc1O` [Curcumin], in data set [6], the LogP is given as 4.12. Further, the “Concentration … in solution” value in data set [1] (Comparative Example 3: 10% 319) turned out to be 8.3 µg/mL; in data set [2] (quaternary: 0.25% 204 (102M+103E5) + 302, 6 h), 34.2 µg/mL; in data set [2] (setting [28]), 676.6 µg/mL; in data set [2] (setting [29]), 516.3 µg/mL; in data set [2] (ternary: 0.25% 102M + 0.05% 314, 0.5 h), 140.0 µg/mL; in data set [2] (ternary: 0.25% 102M + 0.05% 314, 6 h), 5.2 µg/mL. In addition, the “Concentration … in solution” value in data set [2] (ternary: 0.25% 102M + 0.1% 314, 4 h) was 1036.7 µg/mL; in data set [2] (setting [30]), 862.1 µg/mL; in data set [2] (ternary: 0.25% 102M + 1.0% or 1.5% 314, 0.5 h-4.0 h), approximately 1000 µg/mL; in data set [2] (ternary: 0.25% 102M + 1.0% or 1.5% 314, 6 h), 900 µg/mL; in data set [2] (ternary: 102H + 313, 4 h) it was “about 609.8 μg/mL”; in data set [2] (ternary: 102H + 317, 4 h) it was approximately 638.6 µg/mL. Further, the “Concentration … in solution” value in data set [4] (binary: 0.25% 102M, 2 h) is 962.6 µg/mL; in data set [4] (binary: 0.25% 102M, 6 h), 6.4 µg/mL; in data set [4] (binary: 0.5% 102M, 6 h) it was 576.6 µg/mL. Also, the “Times that in Comparative Example 3” value in data set [2] (setting [28]) was determined as 81.5 times; in data set [2] (setting [29]) it was 62.2 times. Besides, the “Times that of the initial medium” value in data set [2] (setting [30]) is reported as 100.6 times; in data set [4] (binary: 0.5% 102M, 6 h), 67 times. The “Concentration of guest molecule measured after different incubated time” value in data set [3] (0.5 h, pH 6.8 phosphate buffer) was determined as 1.7 µg/mL; in data set [3] (3 h, pH 6.8 phosphate buffer), 9.4 µg/mL; in data set [3] (6 h, pH 6.8 phosphate buffer), 8.6 µg/mL. Besides, the “Concentration … after different incubation time” value in data set [4] (setting [10]) stood at 219.7 µg/mL; in data set [4] (setting [11]) it was 120.1 µg/mL; in data set [4] (setting [12]), 50.3 µg/mL; in data set [4] (setting [13]) it was 747.8 µg/mL; in data set [4] (setting [14]) it was 643.4 µg/mL; in data set [4] (setting [15]), 576.7 µg/mL. Besides, the “Concentration … after different incubation time” value in data set [4] (setting [16]) was found to be 76.1 µg/mL; in data set [4] (setting [17]) it was 52.9 µg/mL; in data set [4] (setting [18]), 32.7 µg/mL; in data set [4] (setting [19]) it was 102.6 µg/mL; in data set [4] (setting [20]) it was 118.1 µg/mL; in data set [4] (setting [21]) it was 90.3 µg/mL. Also, the “Concentration … after different incubation time” value in data set [4] (setting [22]) was determined as 107.4 µg/mL; in data set [4] (setting [23]), 8.3 µg/mL; in data set [4] (setting [24]) it was 7.7 µg/mL; in data set [4] (setting [25]) it was 6.0 µg/mL; in data set [4] (setting [26]) it was 8.3 µg/mL; in data set [4] (setting [27]), 10.0 µg/mL.

For the compound `CC(C)OC(=O)CCC/C=C\C[C@@H]1[C@@H](CC[C@@H](O)CCc2ccccc2)[C@H](O)C[C@@H]1O` [Latanoprost, latanoprost], the “Log P” value in data set [6] was 3.98. Further, the Intrinsic solubility in data set [7] is 30 µg/mL.

Regarding `CCNC(=O)CCC/C=C\C[C@@H]1[C@@H](/C=C/[C@@H](O)CCc2ccccc2)[C@H](O)C[C@@H]1O` [Bimatoprost, bimatoprost], in data set [6], the “Log P” value is given as 2.65. In addition, the Intrinsic solubility in data set [7] is 50 µg/mL.
